These are literature values, as cited in patent US9775802B2, “Method for preparing suspensions of low-solubility materials” (Bausch & Lomb Incorporated, priority 2009, dated 2017).

For this data set the following is noted: for solubility in water, estimated: 'estimated to be'.

Counter-ions that a name gives are not always drawn. Like-named read-outs stand apart in the source and are kept apart here.

For `CC[C@H]1OC(=O)[C@H](C)[C@@H](O[C@H]2C[C@@](C)(OC)[C@@H](O)[C@H](C)O2)[C@H](C)[C@@H](O[C@@H]2O[C@H](C)C[C@H](N(C)C)[C@H]2O)[C@](C)(O)C[C@@H](C)CN(C)[C@H](C)[C@@H](O)[C@]1(C)O` [azithromycin dihydrate], under “37° C.”, the solubility in water result is “about 39 mg/mL”.

`CC[C@H]1OC(=O)[C@H](C)[C@@H](O[C@H]2C[C@@](C)(OC)[C@@H](O)[C@H](C)O2)[C@H](C)[C@@H](O[C@@H]2O[C@H](C)C[C@H](N(C)C)[C@H]2O)[C@](C)(O)C[C@@H](C)CN(C)[C@H](C)[C@@H](O)[C@]1(C)O` [azithromycin]: the solubility in water result (temperature not stated) is on record as “about 0.5 mg/mL”.

On to `C[C@@H]1C[C@H]2[C@@H]3CCC4=CC(=O)C=C[C@]4(C)[C@@]3(F)[C@@H](O)C[C@]2(C)[C@@]1(O)C(=O)COP(=O)(O)O` [dexamethasone phosphate disodium salt], for which the “solubility in water (in words)” value was “soluble in water”.

In the case of `C[C@@H]1C[C@H]2[C@@H]3CCC4=CC(=O)C=C[C@]4(C)[C@@]3(F)[C@@H](O)C[C@]2(C)[C@@]1(O)C(=O)CO` [dexamethasone], where the note is “25° C.”, the solubility in water entry is given as “about 0.1 mg/mL”.

For the compound `O=C(O)Cc1ccccc1Nc1c(Cl)cccc1Cl` [diclofenac sodium salt], the solubility in water result (temperature not stated) was “about 50 mg/mL”.

For `O=C(O)Cc1ccccc1Nc1c(Cl)cccc1Cl` [diclofenac], the “solubility in water, estimated” value is reported as “about 0.002 mg/mL”.

Consider `COc1c(N2C[C@@H]3CCCN[C@@H]3C2)c(F)cc2c(=O)c(C(=O)O)cn(C3CC3)c12` [moxifloxacin], for which the “solubility in water, estimated” value was “about 0.17 mg/mL”.
